Measured values from patent US20220054532A1, “VETERINARY COMPOSITIONS AND METHODS OF USE THEREFOR” (priority 2019, published 2022).

Columns and labels:
Format in all cases: in vivo
[1] = tested on: dogs suffering from osteoarthritis; assay: Example 1: pain relief and side effects in canine osteoarthritis; settings: dogs with osteoarthritis, 4 weeks of administration, group average
Excerpt: This example examines the ability of various compositions to minimize pain and examines the level of adverse side effects of each composition.
At the outset of the study, participants receive a full physical examination, including weight measurement, thigh circumference, and CBC/blood chemistries. Because osteoarthritis is not only a disease of pain, but one characterized by behavioral, appetite, anxiety/aggression, family socialization, and sleep aberrations, the pet's owners are familiarized with the pain scale (canine orthopedic index) and additional behavioral assessment log.
The patient group is twenty-four dogs suffering from osteoarthritis, broken into eight groups of three dogs. The first group receives a control composition with no active agent; the second group receives a composition comprising HA as the sole active agent; the third group receives a composition comprising HMW HA as the sole active agent; the fourth group receives a composition comprising CBD as the sole active agent; the fifth group receives a composition comprising HA and CBD as the active agents; the sixth group receives a composition comprising HMW HA and CBD as the active agents; the seventh group receives a composition comprising Rimadyl as the active agent; and the eighth group receives a composition comprising Meloxicam as the active agent.
Each composition is administered for a period of four (4) weeks. The owner completes the electronic log questionnaire each week. At the end of the 4-week study, participants have another full physical examination, including weight measurement, thigh circumference, and CBC/blood chemistries, with an exit interview of the owners to gain final impressions.
Each group is evaluated for pain scores and the scores averaged. The following scores are observed and the results depicted in FIG. 1: […]

[2] = tested on: dogs suffering from GI-specific inflammation; assay: Example 11: GI-specific inflammation, owner-rated symptom reduction (canine, CBD Complex); settings: canine (FIG. 11a), symptom reduction score 0 (no reduction) to 4 (resolution of symptoms); for Final Score: after 28 days BID
Excerpt: (§1) This example examines the ability of embodiments of the invention versus Pepcid® to treat unwanted GI-specific inflammation characterized by gastritis, reflux, vomiting, diarrhea, and inappetence.
(§2) The first patient group is twenty dogs suffering from GI-specific inflammation. The second patient group is twenty cats suffering from GI-specific inflammation. Each patient group is broken into five groups of four animals. The first groups receive Pepcid® as the sole active agent; the second groups receive a composition comprising HMW HA as the sole active agent; the third groups receive a composition comprising CBD as the sole active agent; the fourth groups receive a composition comprising HMW HA and CBD Complex as the active agents; and the fifth groups receive a composition comprising HMW HA, CBD Complex, and glutathione as the active agents.
(§3) Each composition is administered for a period of twenty-eight (28) days, BID. The owner observes potential reduction of symptoms at the end of treatment and rates the reduction as no reduction (score of 0), mild reduction (score of 1), moderate reduction (score of 2), significant reduction (score of 3), or resolution of symptoms (score of 4).

[3] = tested on: dogs suffering behavior aberrations and/or anxiety; assay: Example 5: behavior aberrations and anxiety, C-BARQ (canine); settings: C-BARQ day 0 vs 60, SID, 0 (no improvement) to 3 (marked improvement)
Excerpt: This example examines the ability of embodiments of the invention versus Clomicalm® to reduce behavior aberrations and anxiety.
The first patient group is twenty dogs suffering behavior aberrations and/or anxiety, as determined by the canine behavioral assessment and research questionnaire (“C-BARQ”). See, e.g., P. Wiener et al., Use of questionnaire-based data to assess dog personality, 16 JOURNAL OF VETERINARY BEHAVIOR 81-85 (2016). The second patient group is twenty cats suffering behavior aberrations and/or anxiety, as determined by the feline behavioral assessment and research questionnaire (“Fe-BARQ”).
Each group is broken into five groups of four animals. The first group receives Clomicalm® as the sole active agent; the second group receives a composition comprising HMW HA as the sole active agent; the third group receives a composition comprising CBD as the sole active agent; the fourth group receives a composition comprising HMW HA and CBD as the active agents; and the fifth group receives a composition comprising HMW HA, CBD, valerian root, and scutillaria as the active agents.
Each composition is administered for a period of sixty (60) days, once a day (“SID”). Owners complete the species-appropriate C-BARQ or Fe-BARQ on days 0 and 60 of treatment. The results from the overall questionnaire are averaged and characterized as no improvement (score of 0), mild improvement (score of 1), moderate improvement (score of 2), or marked improvement (score of 3).
The following canine scores are observed and the results depicted in FIG. 5a: […]

[4] = tested on: dogs with a history of severe, chronic skin issues, atopy, pruritis, yeast overgrowth, and/or infection; assay: Example 8: skin conditions (itch score) and side effects in dogs; set-up: Average Side Effect Score: scale not given here; settings: for Average Side Effect Score: dogs with skin conditions, 60 days BID; for Initial Itch Score / Final Itch Score: itch scale 0 (no itching) to 10 (extremely severe); for Initial Itch Score: day 0; for Final Itch Score: day 60, BID
Excerpt: This example examines the ability of embodiments of the invention versus prednisone to treat skin conditions.
The patient group is twenty-four dogs with a history of severe, chronic skin issues, atopy, pruritis, yeast overgrowth, and/or infection, as diagnosed by their referring veterinarian. The patient group is broken into six groups of four animals. The first group receives prednisone as the sole active agent; the second group receives a composition comprising prednisone and HMW HA as the active agents; the third group receives a composition comprising HMW HA as the sole active agent; the fourth group receives a composition comprising CBD as the sole active agent; the fifth group receives a composition comprising HMW HA and CBD as the active agents; and the sixth group receives a composition comprising HMW HA, CBD, quercetin, and nettles as the active agents.
Each composition is administered for a period of sixty (60) days, BID. Each dog is evaluated on days 0 (“Initial Score”), 20, 40, and 60 (“Final Score”) of treatment. The results are averaged and characterized on a scale of 0 (no itching—normal dog), 2 (very mild itching—only occasional episodes), 4 (mild itching), 6 (moderate itching—regular episodes), 8 (severe itching—prolonged episodes), to 10 (extremely severe itching—almost continuous).
The following scores are observed and the results depicted in FIG. 8: […]

[5] = tested on: cats suffering from GI-specific inflammation; assay: Example 3: GI-specific inflammation, owner-rated symptom reduction (feline); settings: symptom reduction score 0 (no reduction) to 4 (resolution of symptoms); for Final Score: after 28 days BID
Excerpt: as §1
as §2, with “CBD” for “CBD Complex”, “CBD,” for “CBD Complex,”
as §3
The following feline scores are observed and the results depicted in FIG. 3b: […]

Compound	Average Pain Score [1]	Average Side Effect Score [1]	Average Pain Score ([1]; listed as CBD alone)	Average Side Effect Score ([1]; listed as CBD alone)	Final Score [2]	Initial Score [2]	Improvement Score [3]	Average Side Effect Score [4]	Initial Itch Score [4]	Final Itch Score [4]	Final Score [5]	Initial Score [5]	Average Pain Score ([1]; listed as HMW HA alone)	Average Side Effect Score ([1]; listed as HMW HA alone)
C=C(C)[C@@H]1CCC(C)=C[C@H]1c1c(O)cc(CCCCC)cc1O [CBD Alone, 2-[(1R,6R)-3-methyl-6-prop-1-en-2-ylcyclohex-2-en-1-yl]-5-pentylbenzene-1,3-diol]	19	0.5	not especially effective in reducing pain	even lower degree of adverse side effects	2	0	2	.5	9	5	2	0		
hyaluronic acid [HMW HA Alone]	16	4			3	0	1	4	9	7	3	0	only slightly reduce pain	low degree of adverse side effects
